The source made the active and inactive calls. No cut-off for these calls is given here.
Legend:
[1] = target: T1, Glucose-dependent insulinotropic receptor (Homo sapiens, UniProt Q8TDV5); experiment: Agonist activity at GPR119 (unknown origin) by Fluo-4 AM dye based calcium mobilization assay; assay type: functional
T1 sequence (Q8TDV5 whole entry): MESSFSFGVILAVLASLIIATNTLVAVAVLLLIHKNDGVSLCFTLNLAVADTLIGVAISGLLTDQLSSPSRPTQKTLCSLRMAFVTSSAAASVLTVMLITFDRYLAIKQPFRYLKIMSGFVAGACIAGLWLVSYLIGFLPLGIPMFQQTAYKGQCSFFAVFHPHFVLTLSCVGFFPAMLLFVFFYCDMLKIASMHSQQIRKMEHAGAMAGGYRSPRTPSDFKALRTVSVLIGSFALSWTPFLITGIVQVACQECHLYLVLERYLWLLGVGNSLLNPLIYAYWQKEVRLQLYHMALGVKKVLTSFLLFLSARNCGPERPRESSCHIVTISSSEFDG

[2] = target: G-protein coupled receptor 84 (Homo sapiens, UniProt Q9NQS5); experiment: Agonist activity at GPR84 (unknown origin) expressed in HEK293 cells coexpressing Galpha16 protein by Fluo-4 AM dye based calcium mobilization assay; assay type: functional, cell-based
[3] = target: T2, Free fatty acid receptor 3 (Homo sapiens, UniProt O14843); experiment: Agonist activity at GPR41 (unknown origin) by Fluo-4 AM dye based calcium mobilization assay; assay type: functional
T2 sequence (O14843 whole entry): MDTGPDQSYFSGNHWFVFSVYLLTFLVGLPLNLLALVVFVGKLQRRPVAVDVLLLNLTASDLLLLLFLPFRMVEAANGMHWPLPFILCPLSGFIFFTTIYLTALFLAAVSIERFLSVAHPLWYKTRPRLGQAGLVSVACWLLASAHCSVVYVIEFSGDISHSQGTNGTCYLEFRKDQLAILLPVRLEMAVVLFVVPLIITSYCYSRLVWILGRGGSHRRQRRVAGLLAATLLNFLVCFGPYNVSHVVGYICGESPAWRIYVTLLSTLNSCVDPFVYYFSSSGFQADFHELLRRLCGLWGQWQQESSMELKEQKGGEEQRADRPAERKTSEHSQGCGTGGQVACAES

[4] = target: T3, Free fatty acid receptor 1 (Homo sapiens, UniProt O14842); experiment: Agonist activity at GPR40 (unknown origin) by Fluo-4 AM dye based calcium mobilization assay; assay type: functional
[5] = target: T3, Free fatty acid receptor 1; experiment: Agonist activity at GPR40 (unknown origin) up to 100 uM by Fluo-4 AM dye based calcium mobilization assay; assay type: functional
[6] = target: T4, Free fatty acid receptor 4 (Homo sapiens) (UniProt Q5NUL3); experiment: Agonist activity at GPR120 (unknown origin) up to 100 uM by Fluo-4 AM dye based calcium mobilization assay; assay type: functional
T4 sequence (whole entry): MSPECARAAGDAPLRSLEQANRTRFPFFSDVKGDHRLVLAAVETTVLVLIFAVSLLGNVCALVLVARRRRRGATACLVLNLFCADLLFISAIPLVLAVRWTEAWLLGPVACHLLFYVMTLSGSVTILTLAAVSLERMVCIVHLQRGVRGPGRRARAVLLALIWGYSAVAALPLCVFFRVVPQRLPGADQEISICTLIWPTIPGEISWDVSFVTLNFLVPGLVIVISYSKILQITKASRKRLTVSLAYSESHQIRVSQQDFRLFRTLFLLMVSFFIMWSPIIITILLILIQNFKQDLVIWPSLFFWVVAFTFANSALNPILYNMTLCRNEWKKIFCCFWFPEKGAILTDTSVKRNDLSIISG

[7] = target: T5, Free fatty acid receptor 3 (Homo sapiens) (UniProt O14843); experiment: Agonist activity at GPR41 (unknown origin) up to 100 uM by Fluo-4 AM dye based calcium mobilization assay; assay type: functional
T5 sequence (whole entry): T2 sequence (O14843 whole entry)

[8] = target: T6, Glucose-dependent insulinotropic receptor (Homo sapiens) (UniProt Q8TDV5); experiment: Agonist activity at GPR119 (unknown origin) up to 100 uM by Fluo-4 AM dye based calcium mobilization assay; assay type: functional
T6 sequence (whole entry): T1 sequence (Q8TDV5 whole entry)

[9] = Cmax in ICR mouse plasma at 10 mg/kg, po administered through gavage measured up to 24 hrs post dose by LC-MS/MS analysis; assay type: ADME, organism-based; set-up: dose 10 mg/kg, route oral
[10] = AUC (0 to t) in ICR mouse plasma at 10 mg/kg, po administered through gavage measured up to 24 hrs post dose by LC-MS/MS analysis; assay type: ADME, organism-based; set-up: time < 24 hr, dose 10 mg/kg, route oral
[11] = Oral bioavailability in ICR mouse at 10 mg/kg administered through gavage measured up to 24 hrs post dose by LC-MS/MS analysis; assay type: ADME, organism-based; conditions: in vivo

G-protein coupled receptor 84, sequence (Q9NQS5 whole entry): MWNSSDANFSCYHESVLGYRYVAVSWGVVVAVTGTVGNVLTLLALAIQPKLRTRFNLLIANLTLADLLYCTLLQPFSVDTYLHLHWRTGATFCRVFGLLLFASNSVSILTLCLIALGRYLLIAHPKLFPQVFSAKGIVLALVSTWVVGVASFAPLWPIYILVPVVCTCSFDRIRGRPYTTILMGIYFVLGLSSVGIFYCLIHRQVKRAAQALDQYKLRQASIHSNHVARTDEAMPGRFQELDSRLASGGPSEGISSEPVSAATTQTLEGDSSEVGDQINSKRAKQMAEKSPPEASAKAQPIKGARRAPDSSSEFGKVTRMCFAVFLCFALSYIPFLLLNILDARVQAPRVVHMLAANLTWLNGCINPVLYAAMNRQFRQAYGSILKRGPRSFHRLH
T3 sequence (O14842 whole entry): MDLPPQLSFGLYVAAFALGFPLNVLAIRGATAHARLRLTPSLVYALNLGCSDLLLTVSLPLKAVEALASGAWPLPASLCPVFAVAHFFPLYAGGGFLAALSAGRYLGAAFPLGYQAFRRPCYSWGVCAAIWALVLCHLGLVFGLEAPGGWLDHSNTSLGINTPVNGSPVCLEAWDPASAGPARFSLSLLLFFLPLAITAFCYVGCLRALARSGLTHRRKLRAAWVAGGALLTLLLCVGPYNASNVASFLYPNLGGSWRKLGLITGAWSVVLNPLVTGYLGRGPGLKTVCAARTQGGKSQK

EC50 [2] | Compound | other results
> 100 µM | Nc1cc(O)nc(SCCCCc2ccccc2)n1 | 
> 100 µM | Cc1cc(O)nc(SCCCCc2ccccc2)n1 | 
> 100 µM | CCCCCCSc1nc(O)cc(=O)n1Cc1ccccc1 | 
> 100 µM | Nc1cc(N)nc(SCCCCc2ccccc2)n1 | 
0.938 µM | CC/C=C\CCSc1nc(O)cc(O)n1 | 
> 100 µM | Cc1c(O)nc(SCCCCc2ccccc2)nc1O | 
> 100 µM | OCCCCCCCCSc1nc(O)cc(O)n1 | 
> 100 µM | CCCCCCOc1cc(O)nc(SCCCCCC)n1 | 
> 100 µM | Oc1cc(C(F)(F)F)nc(SCCCCc2ccccc2)n1 | 

The next lines start with the compound.

Compound | EC50 [2] | other results
CC(C)(C)OC(=O)N1CCC(OCc2nc(-c3ccncc3)no2)CC1 |  | EC50 [1]: 5.13 µM
CCCC(=O)[O-].[Na+] [SODIUM BUTYRATE] |  | EC50 [3]: 10.1 µM
CCCCCCSc1nc(OCCCCCCCO)cc(=O)[nH]1 | > 100 µM | 
CC/C=C\C/C=C\C/C=C\C/C=C\C/C=C\C/C=C\CCC(=O)O [DOCONEXENT] |  | EC50 [4]: 11.7 µM
N#CCCCCc1nc(O)cc(O)n1 | > 100 µM | 
CCCCCCCCCc1cc(O)cc(O)n1 |  | Activity [5]: inactive; Activity [6]: inactive; Activity [7]: inactive; Activity [8]: inactive; Cmax [9]: 229 ng/mL; AUC(0-t) at 24 h [10]: 399 ng·h/mL; bioavailability [11]: 24.3%
C#CCCSc1nc(O)cc(O)n1 | 8.85 µM | 
CCCCCCc1nc(O)cc(O)n1 | 0.454 µM | 
CCCCCCSc1nc(O)cc(=O)n1C | > 100 µM | 
